{
  "source": "patent US8450525B2",
  "about": "“Histone deacetylase inhibitors” (Orchid Chemicals & Pharmaceuticals Limited, priority 2007, dated 2013)",
  "key": {"HCT 116 (colon) cells": {"system": "HCT 116 (colon) cells", "test": "Anti-cancer screen, growth inhibition (MTT)", "format": "cell-based", "details": "Homo sapiens, HCT-116 cells, 48 hours of incubation", "summary_of_the_method": "(§1)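 MTT added for 3 h at 37° C, formazan dissolved in DMSO and A570 read. A T0 plate was measured at compound addition.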"}, "NCI-H460 (lung) cells": {"system": "NCI-H460 (lung) cells", "test": "Anti-cancer screen, growth inhibition (MTT)", "format": "cell-based", "details": "Homo sapiens, 48 hours of incubation", "summary_of_the_method": "as §1"}, "U251 (glioma) cells": {"system": "U251 (glioma) cells", "test": "Anti-cancer screen, growth inhibition (MTT)", "format": "cell-based", "details": "Homo sapiens, U-251 cells, 48 hours of incubation", "summary_of_the_method": "as §1"}, "[1]": {"molecular_target": "T1, HDAC (Mouse Liver Extract)", "T1 construct": "Mouse liver enzyme (10 mg/ml) was diluted 1:6 with HDAC buffer", "test": "HDAC inhibition assay using Boc-Lys(Ac)-AMC substrate, mouse liver enzyme", "format": "biochemical"}, "recombinant HDAC1 enzyme": {"molecular_target": "T2, recombinant HDAC1 enzyme (Homo sapiens, UniProt Q13547)", "T2 construct": "purchased BIOMOL, USA", "T2 sequence (Q13547 whole entry)": "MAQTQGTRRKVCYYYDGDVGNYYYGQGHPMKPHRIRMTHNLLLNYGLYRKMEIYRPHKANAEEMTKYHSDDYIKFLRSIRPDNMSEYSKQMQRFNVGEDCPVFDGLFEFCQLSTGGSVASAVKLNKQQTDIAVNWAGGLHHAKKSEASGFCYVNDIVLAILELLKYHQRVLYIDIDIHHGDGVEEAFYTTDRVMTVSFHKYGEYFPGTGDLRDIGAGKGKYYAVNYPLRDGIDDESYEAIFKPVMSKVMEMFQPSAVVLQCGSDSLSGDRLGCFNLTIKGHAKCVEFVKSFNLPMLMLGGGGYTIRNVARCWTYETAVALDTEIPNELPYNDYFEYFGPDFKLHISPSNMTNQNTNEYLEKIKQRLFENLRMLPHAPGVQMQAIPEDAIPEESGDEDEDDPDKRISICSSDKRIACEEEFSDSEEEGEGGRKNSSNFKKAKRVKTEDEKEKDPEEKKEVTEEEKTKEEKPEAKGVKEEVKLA", "test": "HDAC1 inhibitory activity, recombinant enzyme", "format": "biochemical", "details": "recombinant HDAC1 (BIOMOL); read-out: HDAC1 inhibition (IC50)", "description": "Assay was done in 96-well black microplate and total volume of the assay was 100 μL. Mouse liver enzyme (10 mg/ml) was diluted 1:6 with HDAC buffer. Enzyme cocktail was made of 10 μL of diluted enzyme and 30 μL of HDAC buffer. 40 μl of enzyme cocktail followed by 10 μL of test compound (1 μM and 10 μM) or buffer (control) was added to each well. The plate was pre-incubated at 37° C. for 5 minutes. The HDAC reaction was started by adding 50 μl of HDAC substrate Boc-Lys (Ac)-AMC (Bachem AG, Switzerland). The plate was incubated at 37° C. for 30 minutes. The reaction was stopped by adding 100 μL of Trypsin stop solution and incubating at 37° C. for 15-30 minutes. Measuring the fluorescence at excitation wavelength of 360 nm and emission wavelength of 460 nm monitored the release of AMC. Buffer alone and substrate alone served as blank. […] (Dennis Wegener et al, Anal. Biochem, 321, 2003, 202-208).\nSince the benzamide type compounds are known to have potential for HDAC class 1 specificity, active compounds were tested for HDAC1 inhibitory activity. The assay was carried out, as previously described using recombinant HDAC1 enzyme (BIOMOL, USA) and following manufacturer's instructions."}, "Acetylated histone (H3)": {"system": "Acetylated histone (H3)", "test": "Histone (H3) acetylation, sandwich ELISA in HCT116 cell lysate", "format": "cell-based", "details": "HCT116 cells, 4 hours, vs control", "description": "(§2) The incubation lasted 18 hours for p21 induction. After incubation, cell lysates were prepared in cell lysis buffer by sonication on ice. The lysates were collected after centrifugation and subjected to ELISA test procedure. 100 μL of each diluted cell lysate in dilution buffer (1:1) was added to appropriate capture antibody coated microwells and incubated overnight at 4° C. After washing, 100 μL of detection antibody was added for 1 hour at 37° C. After second washing, 100 μL of HRP-linked secondary antibody was added for 30 minutes at 37° C. Finally, after appropriate washing, 100 μL of TMB substrate was added for 10 minutes at 37° C. followed by 100 μL, of stop solution. The absorbance of individual wells was read using a spectrophotometer at 450 nm (A450)."}, "acetylated Tubulin": {"system": "acetylated Tubulin", "test": "Tubulin acetylation, sandwich ELISA in HCT116 cell lysate", "format": "cell-based", "details": "HCT116 cells, 4 hours, vs control", "description": "as §2"}, "p21": {"system": "p21", "test": "p21 induction, sandwich ELISA in HCT116 cell lysate", "format": "cell-based", "details": "HCT116 cells, 18 hours, vs control", "description": "as §2"}, "HCT116 (colon) xenograft": {"system": "HCT116 (colon) xenograft", "format": "in vivo", "details": "100 mg/kg p.o. qdx21, HCT116 xenograft, vs vehicle treated control", "description": "Experiments were carried out using 6-8 week old female […] SCID (Severe Combined Immune Deficient) mice. The mice were housed in Individually Ventilated Cages (IVC) at constant temperature (22±3° C.) and humidity (50±20%). They had free access to food and water. Tumors were obtained from ATCC, USA and maintained in vivo by subcutaneous (s.c.) passage of tumor fragments (app×30 mg) in healthy mice according to standard reported procedures. All the animal protocols were approved by the Institutional Animal Ethics Committee, ORLL, Chennai. Each experimental group included 6-8 mice bearing s.c. tumors. Tumors were implanted into the axillary region by puncturing using a Trocar, and tumor growth was monitored by measurement of tumor diameters with a Vernier caliper. Tumor Volume (TV) was calculated according to the following formula: TV (mm^3)=L×W^2×0.5,\nWhere L and W are the longest diameter and shortest diameter of the tumor, respectively. The compound treatment started when tumors were palpable (150-200 mm^3).\nTest compound was administered by oral gavage in a volume of 5-10 ml/kg. […] Tumor size was measured twice every week and body weight was recorded daily prior to dosing.\nTest compound (T) efficacy was assessed by calculating several parameters based on tumor volume (TV) with respect to untreated control (C). […]\nToxic effects of drug treatment were assessed by Body Weight Loss %. […]"}},
  "data": [
    {"smiles": "Nc1ccccc1NC(=O)c1ccc(/C=C(/C(=O)NC2CC2)c2ccc(F)cc2)cc1", "note": "[Example 105, (E)-N-(2-Aminophenyl)-4-(3-(cyclopropylamino)-2-(4-fluorophenyl)-3-oxoprop-1-en-1-yl)benzamide]", "values": [
      {"measurement": "GI50", "setting": "HCT 116 (colon) cells", "value": 1000, "unit": "nM"},
      {"measurement": "GI50", "setting": "NCI-H460 (lung) cells", "value": 900, "unit": "nM"},
      {"measurement": "GI50", "setting": "U251 (glioma) cells", "value": 4800, "unit": "nM"},
      {"measurement": "IC50", "setting": "[1]", "value": 15800, "unit": "nM"},
      {"measurement": "HDAC Inhibition % (1 μM)", "setting": "[1]; 1 μM", "value": 46.0, "unit": "%"},
      {"measurement": "HDAC Inhibition % (10 μM)", "setting": "[1]; 10 μM", "value": 71.3, "unit": "%"},
      {"measurement": "IC50", "setting": "recombinant HDAC1 enzyme", "value": 77, "unit": "nM"},
      {"measurement": "H3 Acetylation (Fold Increase)", "setting": "Acetylated histone (H3); 1 μM", "value": 1.24},
      {"measurement": "H3 Acetylation (Fold Increase)", "setting": "Acetylated histone (H3); 10 μM", "value": 6.67},
      {"measurement": "μ-Tubulin Acetylation (Fold Increase)", "setting": "acetylated Tubulin; 1 μM", "value": 2.22},
      {"measurement": "μ-Tubulin Acetylation (Fold Increase)", "setting": "acetylated Tubulin; 10 μM", "value": 8.98},
      {"measurement": "P21 Induction (Fold Increase)", "setting": "p21; 1 μM", "value": 1.05},
      {"measurement": "P21 Induction (Fold Increase)", "setting": "p21; 10 μM", "value": 2.50},
      {"measurement": "maximum Tumor Volume Inhibition (TVI)", "setting": "HCT116 (colon) xenograft", "value": 39.4, "unit": "%"}
    ]}
  ]
}
